# In patent publication US20200171065A1, “METHOD FOR TREATING LIVER DISEASE WITH KINSENOSIDE” (HUAZHONG UNIVERSITY OF SCIENCE AND TECHNOLOGY, priority 2017, published 2020):
# System: SD mice with ANIT induced intrahepatic cholestasis
# Assay: ANIT-induced intrahepatic cholestasis
# Type: in vivo
# Method: 42 SPF SD mice were purchased and raised in the SPF experimental animal center of Tongji Medical College of Huazhong University of Science and Technology. They were provided with standard diet and drinking water. The room temperature was controlled at 23±2° C. After 3 days of adaptive feeding, they were given drugs by intragastric administration. 42 SD mice were randomly divided into 7 groups (normal control group, ANIT model group, KD low-dose group, KD medium dose group, KD high-dose group, UDCA positive control group and KD negative control group), 6 mice in each group were weighed and recorded daily. […] Thereafter, the drug was given again every 24 hours for 3 times, and the animals in each group were fasted (water was provided) after the third time. 72 hours later, the animals were killed and samples were collected.
smiles,measurement,setting,value
"C[C@H](CCC(=O)O)[C@H]1CC[C@H]2[C@@H]3[C@@H](O)C[C@@H]4C[C@H](O)CC[C@]4(C)[C@H]3CC[C@]12C [UDCA, reference compound]",plasma color,"KD 50, 100, 200 mg/kg or UDCA 80 mg/kg by gavage",turned light yellow similar to that of the normal control group
same,hepatic sinusoid and inflammatory cell infiltration (HE staining),"different doses of KD, UDCA treatment group","normal hepatic sinusoid, obvious hepatocyte gap, and obvious recovery of inflammatory cell infiltration"
same,"plasma ALT, AST, AKP, TBIL and DBIL","low, medium and high doses of KD, 80 mg/kg UDCA","can significantly reduce ALT, AST, AKP, TBIL and DBIL"
same,plasma TBA,"medium and high doses of KD, 80 mg/kg UDCA",can significantly reduce TBA
